Results taken from PubChem BioAssay (NCI).
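Grown in 96-well plates, cells were treated for 48 hours with each compound at five concentrations. Insufficient inhibition: endpoint recorded as highest concentration tested. GI50: concentration for 50% inhibition of growth. TGI is the concentration that stops growth completely.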

Experiments:
Assay in all cases: NCI anticancer screen, dose series, 48 h
[1] = tested on: HCT-15 colon
[2] = tested on: SF-539 CNS
[3] = tested on: MALME-3M melanoma
[4] = tested on: CAKI-1 renal
[5] = tested on: ACHN renal
[6] = tested on: SK-MEL-2 melanoma
[7] = tested on: K-562 leukemia
[8] = tested on: SNB-19 CNS
[9] = tested on: MCF7 breast
[10] = tested on: DU-145 prostate

SMILES	TGI [1]	TGI [2]	TGI [3]	TGI [4]	TGI [5]	TGI [6]	TGI [7]	TGI [8]	GI50 [1]	GI50 [2]	GI50 [3]	GI50 [4]	GI50 [5]	GI50 [6]	GI50 [7]	GI50 [8]	TGI [9]	TGI [10]	GI50 [9]	GI50 [10]
CC(=O)n1c2c(c(=O)n1-c1ccccc1)S(=O)CCC2 (stereo not given)	> 100 µM	> 100 µM	> 100 µM	> 100 µM	> 100 µM	> 100 µM	> 100 µM	> 100 µM	–	–	–	–	–	–	–	–	–	–	–	–
Cc1ccc(Cn2c(C)nc3c2C(=O)c2ccccc2C3=O)cc1	60 µM	18.7 µM	34.3 µM	–	38.9 µM	45.6 µM	> 100 µM	49.8 µM	–	–	–	–	–	–	–	–	–	–	–	–
O=C(NC(=O)c1cn(CCNCCO)c(=O)[nH]c1=O)OCc1ccccc1	> 100 µM	> 100 µM	> 100 µM	> 100 µM	> 100 µM	–	> 100 µM	–	–	–	–	–	–	–	–	–	–	–	–	–
O=C(N/N=C1/C(=O)N(c2ccc(Cl)cc2Cl)C(=O)C(=O)C1c1nc2ccccc2o1)c1ccccc1O (stereo not given)	> 100 µM	97.1 µM	78.6 µM	> 100 µM	> 100 µM	> 100 µM	> 100 µM	> 100 µM	–	–	–	–	–	–	–	–	–	–	–	–
CCCCCCC[CH2][Sn]1([CH2]CCCCCCC)[O]C(=O)c2cccnc2[S]1	> 100 µM	> 100 µM	> 100 µM	> 100 µM	> 100 µM	> 100 µM	> 100 µM	> 100 µM	> 100 µM	> 100 µM	> 100 µM	> 100 µM	> 100 µM	> 100 µM	> 100 µM	> 100 µM	–	–	–	–
O=c1cc(-c2ccccc2)[nH]c2c(S)cccc12	> 100 µM	> 100 µM	> 100 µM	–	> 100 µM	–	> 100 µM	> 100 µM	–	–	–	–	–	–	–	–	> 100 µM	> 100 µM	–	–
COC(=O)[C@]1(C)CCCC2(C)C1CC[C@H]1C=C(C)[C@H]3CCC12C3 (stereo not given in full)	> 100 µM	> 100 µM	> 100 µM	> 100 µM	> 100 µM	–	> 100 µM	> 100 µM	–	–	–	–	–	–	–	–	–	–	–	–
c1ccc(SC2CCSc3ccccc3C2Sc2ccccc2)cc1 (stereo not given)	> 100 µM	> 100 µM	–	85 µM	> 100 µM	–	> 100 µM	> 100 µM	–	–	–	–	–	–	–	–	–	–	–	–
CCc1c(OC(C)=O)c2c(NC3OC(COC(C)=O)C(OC(C)=O)C(OC(C)=O)C3OC(C)=O)nc(OC)nc2oc1=O (stereo not given)	> 100 µM	> 100 µM	> 100 µM	> 100 µM	> 100 µM	> 100 µM	> 100 µM	> 100 µM	–	–	–	–	–	–	–	–	–	–	–	–
O=C(CSc1nnc(-c2ccc(N=Cc3ccc(Cl)cc3)cc2)o1)Nc1ccc(Cl)cc1	> 100 µM	–	> 100 µM	–	> 100 µM	> 100 µM	> 100 µM	> 100 µM	–	–	–	–	–	–	–	–	–	–	–	–
Cc1ccc(S(=O)(=O)N/N=C/c2oc(-c3ccncc3)c(-c3ccncc3)c2[N+](=O)[O-])cc1	> 100 µM	> 100 µM	> 100 µM	> 100 µM	> 100 µM	> 100 µM	> 100 µM	> 100 µM	–	–	–	–	–	–	–	–	–	–	–	–
COC1[C@@H](OC(C)=O)[C@@H](NC(=O)C(Cl)(Cl)Cl)C(I)[C@@H](N2C(=O)c3ccccc3C2=O)[C@H]1OC (stereo not given in full)	> 100 µM	> 100 µM	–	–	> 100 µM	–	> 100 µM	> 100 µM	–	–	–	–	–	–	–	–	–	–	–	–
O=C(O)[C@H](NS(=O)(=O)c1ccc2ccccc2c1)c1ccccc1	> 100 µM	> 100 µM	> 100 µM	> 100 µM	> 100 µM	> 100 µM	> 100 µM	> 100 µM	–	–	–	–	–	–	–	–	–	–	–	–
Nc1nc(N)c(N=Nc2ccc([As](=O)(O)O)cc2)c(=O)[nH]1	> 100 µM	–	> 100 µM	> 100 µM	> 100 µM	> 100 µM	> 100 µM	> 100 µM	–	–	–	–	–	–	–	–	> 100 µM	> 100 µM	–	–
Cc1ccc(NC(=O)C2C(=O)N(c3ccc(C)c(C)c3)C(=O)C2N=N)cc1C (stereo not given)	> 100 µM	> 100 µM	> 100 µM	> 100 µM	> 100 µM	> 100 µM	–	> 100 µM	–	–	–	–	–	–	–	–	–	–	–	–
CCc1cccc(C)c1NC(=O)C(=O)Cc1nc2ccccc2o1	> 100 µM	> 100 µM	> 100 µM	> 100 µM	> 100 µM	> 100 µM	> 100 µM	> 100 µM	–	–	–	–	–	–	–	–	–	–	–	–
CCOC(=O)C1(c2ccccc2)CCC(=O)CC1	> 100 µM	–	> 100 µM	> 100 µM	> 100 µM	> 100 µM	> 100 µM	> 100 µM	–	–	–	–	–	–	–	–	–	–	–	–
CC(=C\c1ccccc1)/C=C(\C#N)C(N)=O	> 10 µM	> 10 µM	> 10 µM	> 10 µM	> 10 µM	> 10 µM	–	–	–	–	–	–	–	–	–	–	> 10 µM	> 10 µM	–	–
COc1ccc(-c2cc(-c3ccccc3)c(C#N)c(=O)n2C2OC(CO)C(O)C(O)C2O)cc1 (stereo not given)	> 100 µM	> 100 µM	> 100 µM	–	> 100 µM	–	> 100 µM	> 100 µM	–	–	–	–	–	–	–	–	–	–	–	–
COc1cc(C2c3cc4c(cc3C(O)C(CO)C2CO)OCO4)cc(OC)c1OC (stereo not given)	> 100 µM	–	–	> 46.2 µM	> 100 µM	> 100 µM	> 100 µM	> 100 µM	4.41 µM	0.335 µM	–	3.09 µM	8.09 µM	–	0.432 µM	2.6 µM	> 100 µM	15.4 µM	0.355 µM	0.965 µM
C[C@H]1NC(=O)C2CCCCN2C(=O)CN(C)C(=O)CNC(=O)C2CCCCN2C(=O)[C@@H](NC(=O)c2nc3ccccc3cc2O)[C@@H](C)NC(=O)C2CCCCN2C(=O)CN(C)C(=O)CNC(=O)[C@@H]2CCCCN2C(=O)C1NC(=O)c1nc2ccccc2cc1O (stereo not given in full)	> 100 µM	0.698 µM	0.388 µM	0.768 µM	–	0.23 µM	1.1 µM	2.11 µM	–	–	–	–	–	–	–	–	–	–	–	–
CC(C)=CCc1cc(O)cc2c1OC(C=C(C)C)C1=C2C(=O)C2=C(NCCS2(=O)=O)C1=O (stereo not given)	6.46 µM	4.82 µM	0.834 µM	–	10.6 µM	7.13 µM	14.6 µM	4.44 µM	2.74 µM	2.58 µM	0.159 µM	–	3.18 µM	2.85 µM	3.07 µM	2.25 µM	4.92 µM	4.31 µM	1.21 µM	2.18 µM
COc1ccc(NC(=O)/C(N=O)=C(/C)O)cc1	36.8 µM	> 100 µM	> 100 µM	> 100 µM	> 100 µM	> 100 µM	> 100 µM	> 100 µM	–	–	–	–	–	–	–	–	–	–	–	–
